Test results published in patent US20150274719A1, “AMINO-SUBSTITUTED IMIDAZO[1,2-A]PYRIDINECARBOXAMIDES AND THEIR USE” (BAYER PHARMA AKTIENGESELLSCHAFT, priority 2012, published 2015).

Biological target: T1, recombinant guanylate cyclase reporter cell line (Rattus norvegicus, UniProt P19686+P20595)
T1 construct: expressed in transfected cells; host or cells: recombinant reporter cell line
T1 sequence (P19686 1-690): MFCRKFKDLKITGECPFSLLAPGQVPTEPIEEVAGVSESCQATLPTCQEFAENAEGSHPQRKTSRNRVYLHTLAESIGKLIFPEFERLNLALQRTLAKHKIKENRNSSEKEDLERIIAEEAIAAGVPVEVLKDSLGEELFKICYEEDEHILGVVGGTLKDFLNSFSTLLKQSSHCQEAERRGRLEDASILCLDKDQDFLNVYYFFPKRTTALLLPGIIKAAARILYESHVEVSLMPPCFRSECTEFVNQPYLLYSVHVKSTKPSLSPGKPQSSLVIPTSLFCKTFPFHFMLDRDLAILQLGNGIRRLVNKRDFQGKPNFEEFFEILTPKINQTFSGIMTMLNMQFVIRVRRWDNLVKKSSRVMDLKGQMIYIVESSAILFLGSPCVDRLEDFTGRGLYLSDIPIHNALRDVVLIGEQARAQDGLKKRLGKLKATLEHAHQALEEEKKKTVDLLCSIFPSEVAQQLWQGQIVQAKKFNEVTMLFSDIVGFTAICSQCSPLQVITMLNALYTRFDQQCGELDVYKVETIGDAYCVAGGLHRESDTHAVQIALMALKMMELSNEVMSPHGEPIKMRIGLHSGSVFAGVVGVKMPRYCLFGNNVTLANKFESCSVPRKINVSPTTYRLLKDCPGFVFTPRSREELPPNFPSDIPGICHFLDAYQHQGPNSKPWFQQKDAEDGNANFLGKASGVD
T1 sequence (P20595 1-619): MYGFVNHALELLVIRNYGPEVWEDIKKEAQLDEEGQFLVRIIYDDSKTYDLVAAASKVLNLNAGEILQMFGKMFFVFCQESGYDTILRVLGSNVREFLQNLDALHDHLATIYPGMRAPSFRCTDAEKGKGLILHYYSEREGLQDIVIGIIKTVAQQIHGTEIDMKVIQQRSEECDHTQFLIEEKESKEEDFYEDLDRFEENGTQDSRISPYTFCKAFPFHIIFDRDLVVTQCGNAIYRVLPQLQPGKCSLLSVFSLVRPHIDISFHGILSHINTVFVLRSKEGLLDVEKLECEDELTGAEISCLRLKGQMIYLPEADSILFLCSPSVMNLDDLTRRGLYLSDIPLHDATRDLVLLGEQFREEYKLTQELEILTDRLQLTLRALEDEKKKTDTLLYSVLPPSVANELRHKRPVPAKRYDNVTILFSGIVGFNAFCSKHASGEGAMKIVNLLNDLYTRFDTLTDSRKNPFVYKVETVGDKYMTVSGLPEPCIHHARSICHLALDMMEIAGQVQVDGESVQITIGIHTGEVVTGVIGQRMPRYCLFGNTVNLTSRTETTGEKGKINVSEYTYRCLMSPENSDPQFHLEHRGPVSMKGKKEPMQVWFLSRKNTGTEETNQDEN
Test: Action on recombinant guanylate cyclase reporter cell line
Type: cell-based
Settings: in some cases mean values from individual determinations
In short: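 Rat recombinant guanylate cyclase reporter cell line measures cellular activity. Value reported as MEC (minimal effective concentration), sometimes averaged over individual determinations.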

Row | Structure (SMILES) | MEC (minimal effective concentration) [µM]
1 | Cc1nc2c(OCc3c(F)cccc3F)cccn2c1C(=O)NCC(C)(N)COCc1ccccc1 (racemic) [Example 263, rac-N-[2-amino-3-(benzyloxy)-2-methylpropyl]-8-[(2,6-difluorobenzyl)oxy]-2-methylimidazo[1,2-a]pyridine-3-carboxamide] | 1.00
2 | Cc1nc2c(OCc3c(F)cccc3F)cccn2c1C(=O)NCC(C)(N)CCOCc1ccccc1 (racemic) [Example 264, rac-N-[2-amino-4-(benzyloxy)-2-methylbutyl]-8-[(2,6-difluorobenzyl)oxy]-2-methylimidazo[1,2-a]pyridine-3-carboxamide] | 0.03
3 | Cc1nc2c(OCc3c(F)cccc3F)cccn2c1C(=O)NCC(C)(N)CO (racemic) [Example 273, rac-N-(2-Amino-3-hydroxy-2-methylpropyl)-8-[(2,6-difluorobenzyl)oxy]-2-methylimidazo[1,2-a]-pyridine-3-carboxamide] | 1.00
4 | CCCC(C)(N)CNC(=O)c1c(C)nc2c(OCc3c(F)cccc3F)c(F)ccn12 (racemic) [Example 277, rac-N-(2-Amino-2-methylpentyl)-8-[(2,6-difluorobenzyl)oxy]-7-fluoro-2-methylimidazo[1,2-a]-pyridine-3-carboxamide] | 1.00
5 | CCCC(C)(N)CNC(=O)c1c(C)nc2c(OCc3c(F)ccc(F)c3F)cc(C)cn12 (racemic) [Example 293, rac-N-(2-amino-2-methylpentyl)-2,6-dimethyl-8-[(2,3,6-trifluorobenzyl)oxy]imidazo[1,2-a]pyridine-3-carboxamide] | 0.03
6 | Cc1cc(OCc2c(F)cccc2F)c2nc(C)c(C(=O)NC3CCNCC3(F)F)n2c1 (racemic) [Example 299, rac-8-[(2,6-difluorobenzyl)oxy]-N-(3,3-difluoropiperidin-4-yl)-2,6-dimethylimidazo[1,2-a]pyridine-3-carboxamide] | 0.10
7 | CCCC(C)(N)CNC(=O)c1c(CC)nc2c(OCc3c(F)cccc3F)cc(C)cn12 (racemic) [Example 301, rac-N-(2-amino-2-methylpentyl)-8-[(2,6-difluorobenzyl)oxy]-2-ethyl-6-methylimidazo[1,2-a]pyridine-3-carboxamide] | 0.10
8 | Cc1cc(OCc2c(F)cccc2F)c2nc(C)c(C(=O)NC3CCNC(C(F)(F)F)C3)n2c1 (racemic) [Example 302, rac-8-[(2,6-difluorobenzyl)oxy]-2,6-dimethyl-N-[2-(trifluoromethyl)piperidin-4-yl]imidazo[1,2-a]pyridine-3-carboxamide] | 0.10
9 | CCCC(C)(N)CNC(=O)c1c(C)nc2c(OCc3c(F)c(F)cc(F)c3F)cc(C)cn12 (racemic) [Example 311, rac-N-(2-amino-2-methylpentyl)-2,6-dimethyl-8-[(2,3,5,6-tetrafluorobenzyl)oxy]imidazo[1,2-a]pyridine-3-carboxamide] | 0.30
10 | Cc1cc(OCc2c(F)cccc2F)c2nc(C)c(C(=O)NC3CNCC(F)(F)C3)n2c1 (racemic) [Example 312, rac-8-[(2,6-difluorobenzyl)oxy]-N-(5,5-difluoropiperidin-3-yl)-2,6-dimethylimidazo[1,2-a]pyridine-3-carboxamide] | 0.30
11 | Cc1cc(OCc2c(F)cccc2F)c2nc(C)c(C(=O)NC3CCCCNC3)n2c1 (racemic) [Example 316, rac-N-(azepan-3-yl)-8-[(2,6-difluorobenzyl)oxy]-2,6-dimethylimidazo[1,2-a]pyridine-3-carboxamide] | 0.30
12 | CCCC(C)(N)CNC(=O)c1c(C)nc2c(OCc3cccc(C)c3F)cc(C)cn12 (racemic) [Example 317, rac-N-(2-amino-2-methylpentyl)-8-[(2-fluoro-3-methylbenzyl)oxy]-2,6-dimethylimidazo[1,2-a]pyridine-3-carboxamide] | 0.30
13 | Cc1cc(OCc2c(F)cccc2F)c2nc(C)c(C(=O)NC3(C)CC3(C)N)n2c1 (racemic) [Example 320, rac-N-(2-amino-1,2-dimethylcyclopropyl)-8-[(2,6-difluorobenzyl)oxy]-2,6-dimethylimidazo[1,2-a]pyridine-3-carboxamide (racemate)] | 0.30
14 | Cc1cc(OCc2c(F)cccc2F)c2nc(C)c(C(=O)NCC(C)(N)Cc3ncn(-c4cc(C)on4)n3)n2c1 (racemic) [Example 321, rac-N-{2-amino-2-methyl-3-[1-(5-methyl-1,2-oxazol-3-yl)-1H-1,2,4-triazol-3-yl]propyl}-8-[(2,6-difluorobenzyl)oxy]-2,6-dimethylimidazo[1,2-a]pyridine-3-carboxamide] | 0.30
15 | Cc1cc(OCc2c(F)cccc2F)c2nc(C)c(C(=O)NC3CC3N)n2c1 (racemic) [Example 330, rac-N-(2-aminocyclopropyl)-8-[(2,6-difluorobenzyl)oxy]-2,6-dimethylimidazo[1,2-a]pyridine-3-carboxamide] | 0.30
16 | Cc1cc(OCc2c(F)cccc2F)c2nc(C)c(C(=O)NC3CCC3(C)N)n2c1 (racemic) [Example 331, rac-N-(2-amino-2-methylcyclobutyl)-8-[(2,6-difluorobenzyl)oxy]-2,6-dimethylimidazo[1,2-a]pyridine-3-carboxamide] | 0.30

More lines, now with the values ahead:

Row | MEC (minimal effective concentration) [µM] | Structure (SMILES)
17 | 0.03 | Cc1cc(OCc2c(F)cccc2F)c2nc(C)c(C(=O)NCC(C)(N)C3CC3)n2c1 (racemic) [Example 259, rac-N-(2-Amino-2-cyclopropylpropyl)-8-[(2,6-difluorobenzyl)oxy]-2,6-dimethylimidazo[1,2-a]-pyridine-3-carboxamide]
18 | 0.10 | Cc1cc(OCc2c(F)cccc2F)c2nc(C)c(C(=O)NCC(C)(N)CCOCc3ccccc3)n2c1 (racemic) [Example 262, rac-N-[2-Amino-4-(benzyloxy)-2-methylbutyl]-8-[(2,6-difluorobenzyl)oxy]-2,6-dimethylimidazo-[1,2-a]pyridine-3-carboxamide]
19 | 0.30 | Cc1cc(OCc2c(F)cccc2F)c2nc(C)c(C(=O)NCC(C)(N)COCc3ccccc3)n2c1 (racemic) [Example 265, rac-N-[2-amino-3-(benzyloxy)-2-methylpropyl]-8-[(2,6-difluorobenzyl)oxy]-2,6-dimethylimidazo[1,2-a]pyridine-3-carboxamide]
20 | 1.00 | Cc1cc(OCc2c(F)cccc2F)c2nc(C)c(C(=O)NCC(C)(N)CCO)n2c1 (racemic) [Example 270, rac-N-(2-Amino-4-hydroxy-2-methylbutyl)-8-[(2,6-difluorobenzyl)oxy]-2,6-dimethylimidazo[1,2-a]pyridine-3-carboxamide]
21 | 0.10 | Cc1cc(OCc2c(F)cccc2F)c2nc(C)c(C(=O)NCC(C)(N)Cc3ccc(F)cc3)n2c1 (racemic) [Example 296, rac-N-[2-amino-3-(4-fluorophenyl)-2-methylpropyl]-8-[(2,6-difluorobenzyl)oxy]-2,6-dimethylimidazo[1,2-a]pyridine-3-carboxamide]
22 | 0.10 | Cc1cc(OCc2c(F)cccc2F)c2nc(C)c(C(=O)NCC(C)(N)Cc3ccccn3)n2c1 (racemic) [Example 297, rac-N-[2-amino-2-methyl-3-(pyridin-2-yl)propyl]-8-[(2,6-difluorobenzyl)oxy]-2,6-dimethylimidazo[1,2-a]pyridine-3-carboxamide]
23 | 0.30 | Cc1cc(OCc2c(F)cccc2F)c2nc(C)c(C(=O)NCC(C)(N)Cc3nc4ccccc4s3)n2c1 (racemic) [Example 310, rac-N-[2-amino-3-(1,3-benzothiazol-2-yl)-2-methylpropyl]-8-[(2,6-difluorobenzyl)oxy]-2,6-dimethylimidazo[1,2-a]pyridine-3-carboxamide]
